The structures appear in SMILES notation.

Some targets named below: MAP2K6 (Homo sapiens, UniProt P52564); NEK2 (Homo sapiens, UniProt P51955); MAP2K1 (Homo sapiens, UniProt Q02750); PAK6 (Homo sapiens, UniProt Q9NQU5); DAPK3 (Homo sapiens, UniProt O43293); MAPK11 (Homo sapiens, UniProt Q15759); VRK1 (Homo sapiens, UniProt Q99986); GSK3B (Homo sapiens, UniProt P49841); WNK3 (Homo sapiens, UniProt Q9BYP7); MERTK (Homo sapiens, UniProt Q12866); TYRO3 (Homo sapiens, UniProt Q06418); STK32A (Homo sapiens, UniProt Q8WU08); MAPK3 (Homo sapiens, UniProt P27361); TRIB1 (Homo sapiens, UniProt Q96RU8); CDC42BPA (Homo sapiens, UniProt Q5VT25); PKN2 (Homo sapiens, UniProt Q16513); CAMKK2 (Homo sapiens, UniProt Q96RR4); SRPK2 (Homo sapiens, UniProt P78362); DMPK (Homo sapiens, UniProt Q09013); CDKL2 (Homo sapiens, UniProt Q92772); MYLK (Homo sapiens, UniProt Q15746); STK24 (Homo sapiens, UniProt Q9Y6E0); CDK6 (Homo sapiens, UniProt Q00534); STK17A (Homo sapiens, UniProt Q9UEE5); ACVR2A (Homo sapiens, UniProt P27037); TGFBR2 (Homo sapiens, UniProt P37173); TGFBR1 (Homo sapiens, UniProt P36897); STK3 (Homo sapiens, UniProt Q13188); ACVRL1 (Homo sapiens, UniProt P37023); BMPR1B (Homo sapiens, UniProt O00238); CSNK1G3 (Homo sapiens, UniProt Q9Y6M4).

Details in all cases: binder

Sequence of STK24 (Q9Y6E0 whole entry): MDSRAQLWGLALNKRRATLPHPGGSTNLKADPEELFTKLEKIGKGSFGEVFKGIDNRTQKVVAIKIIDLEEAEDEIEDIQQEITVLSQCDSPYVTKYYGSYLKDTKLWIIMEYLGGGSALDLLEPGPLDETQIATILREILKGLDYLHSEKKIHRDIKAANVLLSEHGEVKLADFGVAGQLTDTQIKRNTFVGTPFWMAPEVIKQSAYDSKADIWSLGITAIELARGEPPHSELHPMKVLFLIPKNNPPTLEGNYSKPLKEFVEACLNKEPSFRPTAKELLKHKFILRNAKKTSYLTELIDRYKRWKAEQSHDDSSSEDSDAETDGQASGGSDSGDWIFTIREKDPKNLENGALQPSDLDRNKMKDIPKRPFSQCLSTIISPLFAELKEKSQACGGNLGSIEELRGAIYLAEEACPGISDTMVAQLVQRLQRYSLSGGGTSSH
Sequence of SRPK2 (P78362 whole entry): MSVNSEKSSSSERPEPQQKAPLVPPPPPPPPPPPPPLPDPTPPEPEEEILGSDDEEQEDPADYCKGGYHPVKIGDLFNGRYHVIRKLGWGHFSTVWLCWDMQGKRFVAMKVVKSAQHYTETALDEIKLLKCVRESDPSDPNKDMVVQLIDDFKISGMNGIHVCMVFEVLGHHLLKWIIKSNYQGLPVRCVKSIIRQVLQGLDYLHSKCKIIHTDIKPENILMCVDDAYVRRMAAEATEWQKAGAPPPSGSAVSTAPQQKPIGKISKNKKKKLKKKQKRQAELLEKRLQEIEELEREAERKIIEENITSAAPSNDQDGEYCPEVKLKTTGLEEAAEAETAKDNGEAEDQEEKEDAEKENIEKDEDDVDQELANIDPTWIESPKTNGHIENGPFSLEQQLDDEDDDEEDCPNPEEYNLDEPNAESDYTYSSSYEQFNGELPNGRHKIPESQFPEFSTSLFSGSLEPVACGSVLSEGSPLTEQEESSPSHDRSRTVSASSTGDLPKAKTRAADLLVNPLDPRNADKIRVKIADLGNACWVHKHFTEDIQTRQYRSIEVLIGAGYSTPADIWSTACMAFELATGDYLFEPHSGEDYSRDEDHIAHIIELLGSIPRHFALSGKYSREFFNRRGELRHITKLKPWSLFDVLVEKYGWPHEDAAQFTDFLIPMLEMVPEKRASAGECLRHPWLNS
Sequence of CDC42BPA (Q5VT25 whole entry): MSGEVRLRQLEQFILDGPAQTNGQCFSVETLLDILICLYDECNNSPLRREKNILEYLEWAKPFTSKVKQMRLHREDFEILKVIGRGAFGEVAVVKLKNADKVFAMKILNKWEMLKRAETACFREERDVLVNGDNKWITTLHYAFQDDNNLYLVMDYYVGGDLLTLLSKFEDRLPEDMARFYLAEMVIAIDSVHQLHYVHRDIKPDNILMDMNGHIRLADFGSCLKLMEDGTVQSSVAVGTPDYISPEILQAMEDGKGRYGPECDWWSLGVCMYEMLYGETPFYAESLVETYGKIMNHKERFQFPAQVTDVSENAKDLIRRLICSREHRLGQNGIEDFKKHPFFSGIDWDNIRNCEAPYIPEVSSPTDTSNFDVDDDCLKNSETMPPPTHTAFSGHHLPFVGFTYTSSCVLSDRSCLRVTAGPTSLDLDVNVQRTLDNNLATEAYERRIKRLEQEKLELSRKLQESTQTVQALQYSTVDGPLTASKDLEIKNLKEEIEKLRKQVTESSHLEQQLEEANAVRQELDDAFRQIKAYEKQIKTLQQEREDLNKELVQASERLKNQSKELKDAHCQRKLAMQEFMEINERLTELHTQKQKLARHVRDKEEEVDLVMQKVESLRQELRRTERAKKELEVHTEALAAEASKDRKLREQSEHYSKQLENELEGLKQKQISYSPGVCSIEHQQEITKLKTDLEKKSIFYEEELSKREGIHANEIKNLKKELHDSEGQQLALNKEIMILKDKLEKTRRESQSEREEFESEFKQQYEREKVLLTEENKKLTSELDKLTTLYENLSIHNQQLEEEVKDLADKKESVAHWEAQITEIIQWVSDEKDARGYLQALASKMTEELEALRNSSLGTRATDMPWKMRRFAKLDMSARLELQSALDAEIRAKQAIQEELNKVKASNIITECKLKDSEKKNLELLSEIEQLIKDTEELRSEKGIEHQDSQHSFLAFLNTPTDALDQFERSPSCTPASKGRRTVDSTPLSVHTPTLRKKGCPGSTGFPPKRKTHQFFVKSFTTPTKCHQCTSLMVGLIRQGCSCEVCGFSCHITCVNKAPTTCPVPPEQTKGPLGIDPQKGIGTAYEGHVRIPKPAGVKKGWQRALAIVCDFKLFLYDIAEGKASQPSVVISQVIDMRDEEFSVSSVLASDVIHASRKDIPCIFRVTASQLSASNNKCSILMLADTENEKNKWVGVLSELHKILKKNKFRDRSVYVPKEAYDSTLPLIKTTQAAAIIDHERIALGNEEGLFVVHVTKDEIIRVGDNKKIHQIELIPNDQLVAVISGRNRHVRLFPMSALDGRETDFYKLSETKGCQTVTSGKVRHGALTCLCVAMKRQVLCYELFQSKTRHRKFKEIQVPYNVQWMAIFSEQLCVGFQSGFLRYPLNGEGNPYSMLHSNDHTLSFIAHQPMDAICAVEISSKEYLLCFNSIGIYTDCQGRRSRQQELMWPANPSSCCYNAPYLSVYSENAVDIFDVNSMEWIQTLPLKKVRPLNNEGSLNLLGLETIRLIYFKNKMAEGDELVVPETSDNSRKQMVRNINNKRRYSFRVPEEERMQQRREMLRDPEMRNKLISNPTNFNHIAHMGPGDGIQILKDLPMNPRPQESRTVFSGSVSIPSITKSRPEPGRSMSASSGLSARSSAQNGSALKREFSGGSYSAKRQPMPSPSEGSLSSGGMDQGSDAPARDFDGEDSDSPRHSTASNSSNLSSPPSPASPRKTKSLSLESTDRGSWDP
Sequence of CDK6 (Q00534 whole entry): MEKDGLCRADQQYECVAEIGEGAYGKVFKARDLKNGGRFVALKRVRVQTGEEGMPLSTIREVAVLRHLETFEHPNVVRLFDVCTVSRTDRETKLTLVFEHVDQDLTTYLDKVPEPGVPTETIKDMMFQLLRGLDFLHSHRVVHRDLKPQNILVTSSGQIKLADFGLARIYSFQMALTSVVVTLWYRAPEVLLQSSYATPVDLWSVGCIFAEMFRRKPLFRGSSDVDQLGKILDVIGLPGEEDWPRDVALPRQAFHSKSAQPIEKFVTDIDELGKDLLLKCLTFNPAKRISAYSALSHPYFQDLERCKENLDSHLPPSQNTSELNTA
Sequence of CSNK1G3 (Q9Y6M4 whole entry): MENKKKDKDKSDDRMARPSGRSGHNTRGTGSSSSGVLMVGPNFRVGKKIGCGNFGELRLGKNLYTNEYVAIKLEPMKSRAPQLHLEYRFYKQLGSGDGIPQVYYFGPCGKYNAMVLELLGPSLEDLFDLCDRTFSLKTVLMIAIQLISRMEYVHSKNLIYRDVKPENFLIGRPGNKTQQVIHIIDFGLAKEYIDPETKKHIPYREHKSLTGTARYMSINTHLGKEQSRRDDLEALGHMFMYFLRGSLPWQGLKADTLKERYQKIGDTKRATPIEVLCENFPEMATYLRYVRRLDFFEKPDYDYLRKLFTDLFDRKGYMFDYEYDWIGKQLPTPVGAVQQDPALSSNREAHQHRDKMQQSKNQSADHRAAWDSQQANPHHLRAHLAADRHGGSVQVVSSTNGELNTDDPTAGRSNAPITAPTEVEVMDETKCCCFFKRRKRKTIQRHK
Sequence of PKN2 (Q16513 whole entry): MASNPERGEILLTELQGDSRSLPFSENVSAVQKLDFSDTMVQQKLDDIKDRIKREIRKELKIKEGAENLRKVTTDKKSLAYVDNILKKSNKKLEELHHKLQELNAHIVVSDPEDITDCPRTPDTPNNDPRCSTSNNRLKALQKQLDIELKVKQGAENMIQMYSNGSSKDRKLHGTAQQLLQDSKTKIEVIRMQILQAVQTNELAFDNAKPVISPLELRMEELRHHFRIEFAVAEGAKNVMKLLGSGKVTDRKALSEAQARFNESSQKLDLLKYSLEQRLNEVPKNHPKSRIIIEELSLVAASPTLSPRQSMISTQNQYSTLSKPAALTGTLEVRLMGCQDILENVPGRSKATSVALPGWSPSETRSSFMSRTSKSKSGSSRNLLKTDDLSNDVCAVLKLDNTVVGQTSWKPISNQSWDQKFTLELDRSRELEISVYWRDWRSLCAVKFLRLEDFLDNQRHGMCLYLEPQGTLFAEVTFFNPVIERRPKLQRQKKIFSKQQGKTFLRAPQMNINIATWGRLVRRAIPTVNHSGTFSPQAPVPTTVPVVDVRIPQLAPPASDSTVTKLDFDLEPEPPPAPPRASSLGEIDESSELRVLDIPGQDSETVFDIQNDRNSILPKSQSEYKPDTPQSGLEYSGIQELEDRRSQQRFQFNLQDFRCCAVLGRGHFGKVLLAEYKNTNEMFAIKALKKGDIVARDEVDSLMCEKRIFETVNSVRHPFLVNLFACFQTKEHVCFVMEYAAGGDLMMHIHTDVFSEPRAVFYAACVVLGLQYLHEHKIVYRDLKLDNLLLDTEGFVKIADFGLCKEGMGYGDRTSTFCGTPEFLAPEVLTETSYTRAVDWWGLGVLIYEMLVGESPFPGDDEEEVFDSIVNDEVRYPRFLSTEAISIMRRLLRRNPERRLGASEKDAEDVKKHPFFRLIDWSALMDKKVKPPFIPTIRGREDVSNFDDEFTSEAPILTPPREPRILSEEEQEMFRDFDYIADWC
Sequence of STK32A (Q8WU08 whole entry): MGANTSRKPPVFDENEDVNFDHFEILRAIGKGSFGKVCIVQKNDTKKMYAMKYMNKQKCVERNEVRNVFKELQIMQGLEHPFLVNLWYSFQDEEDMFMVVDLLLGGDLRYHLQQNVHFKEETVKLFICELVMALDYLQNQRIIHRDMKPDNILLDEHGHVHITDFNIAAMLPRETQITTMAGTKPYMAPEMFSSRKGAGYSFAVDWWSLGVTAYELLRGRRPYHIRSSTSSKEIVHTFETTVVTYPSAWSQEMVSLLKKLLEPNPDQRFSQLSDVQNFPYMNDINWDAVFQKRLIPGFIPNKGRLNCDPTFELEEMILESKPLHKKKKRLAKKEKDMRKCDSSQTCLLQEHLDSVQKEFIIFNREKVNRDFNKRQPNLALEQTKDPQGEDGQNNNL

Regarding `CCN1/C(=C/C(C)=O)Sc2ccc(OC)cc21` [compound 2, TG003], the “ΔTm inhibitor 2” value on MAP2K6 is 0.0 °C; at NEK2, 0.8 °C; at MAP2K1, -0.1 °C; at PAK6, -0.9 °C; at DAPK3, 0.9 °C; on MAPK11 it was 0.0 °C. The “ΔTm inhibitor 2” value on VRK1 was 1.1 °C; on GSK3B it was 1.4 °C; at WNK3 it was -0.3 °C; at MERTK it was 0.0 °C; at TYRO3, 0.1 °C; at STK32A it was -0.2 °C. In addition, the “ΔTm inhibitor 2” value was -0.1 °C on MAPK3; 0.2 °C at TRIB1; -0.4 °C at CDC42BPA; -0.5 °C on PKN2; 0.4 °C at CAMKK2; -0.2 °C on SRPK2. For the same compound, the “ΔTm inhibitor 2” value is 1.0 °C on DMPK; -0.5 °C on CDKL2; -0.2 °C on MYLK; -0.2 °C on STK24; 0.4 °C at CDK6.

For `CC(=O)c1cccc(-c2cnc3ccc(NCC4CC4)nn23)c1` [compound 1, K00135], the “ΔTm inhibitor 1” value came to 1.1 °C on MAP2K6; 1.1 °C at PAK6; 2.8 °C at DAPK3; 3.4 °C at STK17A; 4.0 °C at ACVR2A; 13.7 °C at TGFBR2. Further, the “ΔTm inhibitor 1” value on TGFBR1 stood at 9.5 °C; at STK3, 2.9 °C; on MAPK11, 0.3 °C; at VRK1 it was 0.7 °C; at GSK3B, 4.1 °C; at WNK3 it was 0.0 °C. In addition, the “ΔTm inhibitor 1” value on ACVRL1 came out at 11.1 °C; at MERTK it was 1.3 °C; on BMPR1B, 11.5 °C; at TYRO3, 0.4 °C; on MAPK3, 0.5 °C; on PKN2 it was 3.7 °C. The “ΔTm inhibitor 1” value is 0.3 °C at CSNK1G3, 2.5 °C on CAMKK2, 1.0 °C at DMPK and 0.1 °C on CDK6.

Regarding `Nc1nccc(-c2ccc3noc(-c4ccc(Cl)cc4)c3c2)n1` [compound 4, K00972], the “ΔTm inhibitor 4” value was 0.1 °C at NEK2; 0.2 °C on MAP2K1; 2.2 °C at STK17A; 0.3 °C on ACVR2A; 2.0 °C at TGFBR2; 0.9 °C on TGFBR1. Besides, the “ΔTm inhibitor 4” value at STK3 amounted to 1.6 °C; at ACVRL1 it was 1.2 °C; at BMPR1B, 0.2 °C; at STK32A, 0.2 °C; at TRIB1, 0.1 °C; on CDC42BPA, 0.6 °C. The “ΔTm inhibitor 4” value at CSNK1G3 came out at 1.2 °C; on SRPK2, 0.4 °C; on CDKL2, 0.1 °C; on MYLK, 0.1 °C; on STK24, 0.8 °C.
